{"source": "patent US11760722B2", "about": "(priority 2022, dated 2023)", "data": [{"tested_on": "SARS-CoV-2 Delta USA/MD-HP05647/2021 (Lineage B.1.617.2)", "assay": "microbe, parasite or virus in culture", "format": "cell-based", "conditions": "Severe acute respiratory syndrome coronavirus 2, Vero C1008, 4 h; read-out: Vero E6 Delta CPE/EC50", "units": {"EC50": "µM"}, "values": [{"smiles": "CCNC(=S)N[C@H](C(=O)N1C[C@H]2[C@@H]([C@H]1C(=O)N[C@H](C#N)C[C@@H]1CCNC1=O)C2(C)C)C(C)(C)C", "note": "[Compound 72]", "EC50": 0.261}, {"smiles": "CC(C)(C)[C@H](NS(=O)(=O)c1ccc(OC(F)(F)F)cc1)C(=O)N1C[C@H]2[C@@H]([C@H]1C(=O)N[C@H](C#N)C[C@@H]1CCNC1=O)C2(C)C", "note": "[Compound 89]", "EC50": 0.0617}, {"smiles": "CC(C)(C)[C@H](NC(=O)CC#N)C(=O)N1C[C@H]2[C@@H]([C@H]1C(=O)N[C@H](C#N)C[C@@H]1CCNC1=O)C2(C)C", "note": "[Compound 33]", "EC50": 0.94}, {"smiles": "CC(C)(C)[C@H](NS(=O)(=O)c1ccc(F)c(F)c1)C(=O)N1C[C@H]2[C@@H]([C@H]1C(=O)N[C@H](C#N)C[C@@H]1CCNC1=O)C2(C)C", "note": "[Compound 99]", "EC50": 0.0222}, {"smiles": "CC(C)(C)[C@H](NS(=O)(=O)c1ccccc1)C(=O)N1C[C@H]2[C@@H]([C@H]1C(=O)N[C@H](C#N)C[C@@H]1CCNC1=O)C2(C)C", "note": "[Compound 95]", "EC50": 0.0107}, {"smiles": "CC(C)(C)[C@H](NS(=O)(=O)c1ccc2c(c1)CCO2)C(=O)N1C[C@H]2[C@@H]([C@H]1C(=O)N[C@H](C#N)C[C@@H]1CCNC1=O)C2(C)C", "note": "[Compound 83]", "EC50": 0.0204}, {"smiles": "CC(C)(C)[C@H](NS(=O)(=O)c1cccs1)C(=O)N1C[C@H]2[C@@H]([C@H]1C(=O)N[C@H](C#N)C[C@@H]1CCNC1=O)C2(C)C", "note": "[Compound 100]", "EC50": 0.0368}, {"smiles": "Cc1ccc(S(=O)(=O)N[C@H](C(=O)N2C[C@H]3[C@@H]([C@H]2C(=O)N[C@H](C#N)C[C@@H]2CCNC2=O)C3(C)C)C(C)(C)C)cc1", "note": "[Compound 96]", "EC50": "< 0.0045"}, {"smiles": "CC(C)(C)[C@H](NC(=S)NC1CC1)C(=O)N1C[C@H]2[C@@H]([C@H]1C(=O)N[C@H](C#N)C[C@@H]1CCNC1=O)C2(C)C", "note": "[Compound 76]", "EC50": 0.834}, {"smiles": "CC(C)(C)[C@H](NC(=O)c1cnc2[nH]ccc2c1)C(=O)N1C[C@H]2[C@@H]([C@H]1C(=O)N[C@H](C#N)C[C@@H]1CCNC1=O)C2(C)C", "note": "[Compound 32]", "EC50": 101}, {"smiles": "Cc1csc(S(=O)(=O)N[C@H](C(=O)N2C[C@H]3[C@@H]([C@H]2C(=O)N[C@H](C#N)C[C@@H]2CCNC2=O)C3(C)C)C(C)(C)C)c1", "note": "[Compound 112]", "EC50": 0.0634}, {"smiles": "COc1ccc(S(=O)(=O)N[C@H](C(=O)N2C[C@H]3[C@@H]([C@H]2C(=O)N[C@H](C#N)C[C@@H]2CCNC2=O)C3(C)C)C(C)(C)C)cc1", "note": "[Compound 101]", "EC50": 0.00031}, {"smiles": "CC(C)(C)[C@H](NC(=O)CS(C)(=O)=O)C(=O)N1C[C@H]2[C@@H]([C@H]1C(=O)N[C@H](C#N)C[C@@H]1CCNC1=O)C2(C)C", "note": "[Compound 64]", "EC50": 1.33}, {"smiles": "CC(C)(C)[C@H](NS(=O)(=O)c1ccns1)C(=O)N1C[C@H]2[C@@H]([C@H]1C(=O)N[C@H](C#N)C[C@@H]1CCNC1=O)C2(C)C", "note": "[Compound 122]", "EC50": 0.18}]}]}
